Blank lines part the entries; values can stand above or below the compound they belong to.
Assays:
Ostertagia ostertagi = test: In-vivo test in cattle using peroral application; conditions: oral, worm burden in abomasum 23 to 28 days after treatment
Description: 4. In-vivo Test on Ostertagia ostertagi in Cattle Using Peroral Application Cattle are infected with 7,000 to 10,000 third stage larvae of Ostertagia ostertagi (Oo) 7 to 5 days prior to treatment. […] The animals are euthanized 23 to 28 days after treatment and the worm burden in the abomasum is examined. Efficacy assessment of the compounds is determined by comparison of the treated and untreated groups worm counts, calculated using Abbott's formula as follows: % efficacy=100×(C−T)/C; where C is the geometric mean worm count of each species for the untreated control group and T, the geometric mean worm count of each species for the treated group.

[1] = tested on: Teladorsagia circumcincta; test: In-vivo test in sheep using peroral application; conditions: oral, worm burden in abomasum 19 to 21 days after treatment
Description: 3. In-Vivo Test on Teladorsagia circumcincta in Sheep Using Peroral Application Sheep are infected with 6,000 to 8,000 third stage larvae of Teladorsagia circumcincta (Tca) 7 to 5 days prior to treatment Animals in the treated groups are treated orally at a dose of 2 or 5 mg per kg bodyweight. […] The animals are euthanized 19 to 21 days after treatment and the worm burden in the abomasum is examined. Efficacy assessment of the compounds is determined by comparison of the treated and untreated groups worm counts, calculated using Abbott's formula as follows: % efficacy=100×(C−T)/C, where C is the geometric mean worm count of each species for the untreated control group and T, the geometric mean worm count of each species for the treated group.

Haemonchus contortus = test: In-vivo test in Mongolian gerbils using peroral application; conditions: dose 0.32 mg/kg, H. contortus
Description: (§1) 2. In-vivo Test on Trichostrongylus colubriformis and Haemonchus contortus in Mongolian Gerbils (Meriones unquiculatus) Using Peroral Application Six to eight week old Mongolian gerbils are infected through a stomach tube with ca. 2000 third instar larvae each of T. colubriformis and H contortus. 6 days after infection, the gerbils are treated by peroral application with the test compounds, dissolved in a mixture of 2 pasts DMSO and 1 part polyethylene glycol (PEG 400). On day 9 (3 days after treatment), when most of the H. cantortus that are still present are late 4th instar larvae and most of the T. colubriformis are immature adults, the gerbils are killed in order to count the worms. The efficacy is calculated as the % reduction of the number of worms in each gerbil, compared with the geometric average of number of worms from 6 infected and untreated gerbils.

[2] = tested on: Trichostrongylus colubriformis; test: as above; conditions: dose 0.32 mg/kg, T. colubriformis
Description: as §1

Structure (SMILES): CC(C#N)(COc1cc(C#N)ccc1Oc1ccc(OC(F)(F)F)cc1Cl)NC(=O)c1ccc(OC(F)(F)F)cc1 (racemic) [Compound No. 1.1, N-[1-cyano-1-methyl-2-(5-cyano-2-{2-chloro-4-trifluoromethoxy-phenoxy}-phenoxy)-ethyl]-4-trifluoromethoxybenzamide]
- Efficacy against Oo [%] (Ostertagia ostertagi; dose 5 mg/kg): 100%
- Efficacy against Tca [%] ([1]; dose 2 mg/kg): 99%
- efficacy (% reduction of the number of worms) (Haemonchus contortus): 100%
- efficacy (% reduction of the number of worms) [2]: 100%

- melting point: 136 to 137 °C
Structure (SMILES): CC(C#N)(COc1cc(C#N)ccc1Oc1ccc(OC(F)(F)F)cc1Cl)NC(=O)c1ccc(SC(F)(F)F)cc1 (racemic) [Compound No. 1.7, N-[1-cyano-1-methyl-2-(5-cyano-2-{2-chloro-4-trifluoromethoxy-phenoxy}-phenoxy)-ethyl]-4-trifluoromethylsulfanylbenzamide]
- Efficacy against Oo [%] (Ostertagia ostertagi; dose 5 mg/kg): 100%
- Efficacy against Tca [%] ([1]; dose 2 mg/kg): 99%
- efficacy (% reduction of the number of worms) (Haemonchus contortus): 100%
- efficacy (% reduction of the number of worms) [2]: 100%

- melting point: 128 to 130 °C
Structure (SMILES): CC(C#N)(COc1cc(C#N)ccc1Oc1ccc(OC(F)(F)F)cc1Cl)NC(=O)c1ccc(S(=O)(=O)C(F)(F)F)cc1 (racemic) [Compound No. 1.12, N-[1-cyano-1-methyl-2-(5-cyano-2-{2-chloro-4-trifluoromethoxy-phenoxy}-phenoxy)-ethyl]-4-trifluoromethylsulfonylbenzamide]
- Efficacy against Oo [%] (Ostertagia ostertagi; dose 5 mg/kg): 100%
- Efficacy against Tca [%] ([1]; dose 2 mg/kg): 99%
- efficacy (% reduction of the number of worms) (Haemonchus contortus): 98%
- efficacy (% reduction of the number of worms) [2]: 98%

Structure (SMILES): C[C@@](C#N)(COc1cc(C#N)ccc1Oc1ccc(OC(F)(F)F)cc1Cl)NC(=O)c1ccc(OC(F)(F)F)cc1 [Compound No. 1.3, N-[(1R)-1-cyano-2-(5-cyano-2-{2-chloro-4-trifluoromethoxyphenoxy}-phenoxy)-1-methylethyl]-4-trifluoromehoxy-benzamide]
- efficacy (% reduction of the number of worms) (Haemonchus contortus): 100%
- efficacy (% reduction of the number of worms) [2]: 100%

Structure (SMILES): CC(C#N)(COc1cc(Cl)ccc1Oc1ccc(Cl)cc1Cl)NC(=O)c1ccc(OC(F)(F)F)cc1 (stereo not shown) [reference compound]
- Efficacy against Tca [%] ([1]; dose 5 mg/kg): 15%

Structure (SMILES): CC(C#N)(COc1cc(C#N)ccc1Oc1ccc(Cl)cc1Cl)NC(=O)c1ccc(OC(F)(F)F)cc1 (stereo not shown) [reference compound]
- Efficacy against Oo [%] (Ostertagia ostertagi; dose 20 mg/kg): 55%
- Efficacy against Tca [%] ([1]; dose 5 mg/kg): 0%

Reference: patent publication US8759564B2, “Amidoacetonitrile compounds having pesticidal activity” (Novartis AG, priority 2009, dated 2014)
